Test results as given in US20050227941A1, “Sequestration of ass in the periphery in the absence of immunomodulating agent as a therapeutic approach for the treatment or prevention of beta-amyloid related diseases” (priority 2001, published 2005).

Assays:
Format in all cases: in vivo
Aβ42 [1] = target: T1, Aβ42 (Homo sapiens, UniProt P05067); assay: Plasma Aβ42 level over time after a single injection of CG in PS/APP mice (ELISA); conditions: single injection 20 mg/kg
T1 construct: from tissue; host or cells: brain (70% formic acid extract) and plasma of PS/APP transgenic mice
T1 sequence (P05067 672-713 limits assumed): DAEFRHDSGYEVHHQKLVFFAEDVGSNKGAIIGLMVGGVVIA
Description: In this Example, as in Example 1, transgenic mice that develop AD-related amyloidosis, (i.e., PS/APP mice; See, L. Holcomb et al., 1998, Nature Med., 4(1):97-100) were used to assess the Aβ-binding compound chrysamine G (CG) in the peripheral sequestration of Aβ according to this invention, and to determine how the peripheral sequestration of Aβ by this compound affected brain Aβ levels. CG is known to bind Aβ strongly, and is less brain permeable than GM1.
PS/APP mice at 10 weeks of age were injected once either with CG (number of mice=3, dosage: 20 mg/kg) or vehicle (phosphate buffered saline, number of mice=2) into the blood stream. […] […] The levels of Aβ peptides (Aβ40 or Aβ42) in the plasma were assessed by ELISA immunoassay. The levels of Aβ peptides in the periphery, i.e., plasma, of CG treated mice were compared with plasma Aβ levels in pretreatment mice at various time points.
Changes in plasma load of Aβ42 after injection with CG were compared to the plasma Aβ level at pretreatment time points. As can be observed, there was a significant increase in plasma Aβ levels after injection of CG.

Aβ40 [2] = target: T2, Aβ40 (Homo sapiens, UniProt P05067); assay: Brain Aβ40 (70% formic acid extract, ELISA) after one week of daily CG injection in PS/APP mice; conditions: 20 mg/kg ip every day for one week, sacrificed at 12 weeks, vehicle 926 ± 26
T2 construct: from tissue; host or cells: brain (70% formic acid extract) and plasma of PS/APP transgenic mice
T2 sequence (P05067 672-711 limits assumed): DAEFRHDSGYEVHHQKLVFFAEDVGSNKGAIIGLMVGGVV
Method: (§1) Following a oneweek wash out period, the effect in brain AD level after continuous injection was examined. PS/APP mice were injected every day for one week into the periphery, with either CG (number of mice=3) (20 mg/kg, ip,) or vehicle (phosphate buffered saline) (number of mice=2), at 11 weeks of age, an age when amyloid pathology in the brain is not visible. The mice were sacrificed at 12 weeks of age, an age when amyloid deposition has been initiated and measurable levels of Aβ are present in the vehicle treated controls.
(§2) The levels of Aβ in the peripheral blood were tested at the end of the administration period. The levels of Aβ peptides (e.g., Aβ40 or Aβ42) in the brain and plasma were assessed by ELISA assay. All of the Aβ in the brain (including Aβ in plaques) was extracted in 70% formic acid (FA). The levels of Aβ peptides in CG treated mice were compared with those of vehicle treated controls. […] This correlates with a statistically significant increase in peripheral Aβ40 and Aβ42 at the same time point.

Aβ42 [3] = target: T1, Aβ42; assay: Plasma Aβ42 level after one week of daily CG injection in PS/APP mice (ELISA); conditions: 20 mg/kg ip every day for one week from 11 weeks of age, vehicle = 100 ± 9
Method: as §1, §2

Aβ42 [4] = target: T1, Aβ42; assay: Brain Aβ42 (70% formic acid extract, ELISA) after one week of daily CG injection in PS/APP mice; conditions: 20 mg/kg ip every day for one week, sacrificed at 12 weeks, vehicle 1209 ± 292, not statistically significant
Method: as §1, §2

Aβ40 [5] = target: T2, Aβ40; assay: Plasma Abeta40 load (ELISA) in PS/APP mice after peripheral GM1 or gelsolin; conditions: ip every two days for two weeks, third time point (after wash-out), vehicle = 100 ± 21
Method: (§3) Transgenic mice that develop AD-related amyloidosis, (i.e., PS/APP mice; See, L. Holcomb et al., 1998, Nature Med., 4(1):97-100) were used for the studies described in this Example to assess how peripheral sequestration of Aβ affected brain Aβ levels. […] In addition, a second compound, gelsolin, which is too large to cross the blood/brain barrier (BBB), and is completely unrelated to GM1, but which is also known to bind Aβ with great avidity, was administered peripherally to confirm the universality of the mechanism.
(§4) PS/APP mice were injected every two days for two weeks either with GM1 (number of mice=6) (15 mg/kg, ip,), with gelsolin (number of mice=3) (60 μg/kg, ip), or with vehicle, (phosphate buffered saline), (number=7), into the periphery at 9 weeks of age, an age when amyloid pathology in the brain is not visible. The mice were left for 1 week without injections (the “wash-out” period) and were then sacrificed at 12 weeks of age, an age when amyloid deposition has been initiated and measurable levels of Aβ are present in the vehicle treated controls.
(§5) The levels of Aβ in the peripheral blood were tested at three time points during the drug administration period (i.e., after 1 week of injections; after two weeks of injections; and after the washout period). […] The levels of Aβ peptides (Aβ40 or Aβ42) in the brain and plasma were assessed by ELISA assay. […]

Aβ40 [6] = target: T2, Aβ40; assay: Brain Abeta40 load (70% formic acid extract, ELISA) in PS/APP mice after peripheral GM1 or gelsolin; conditions: 1 week wash-out; for brain Abeta load, Abeta40: ip every two days for two weeks from 9 weeks of age, sacrificed at 12 weeks, FA-soluble brain fraction; for brain Abeta40 load compared with controls (vehicle): ip every two days for two weeks, % of vehicle
Method: as §3, §4
(§6) The levels of Aβ in the peripheral blood were tested at three time points during the drug administration period (i.e., after 1 week of injections; after two weeks of injections; and after the washout period). Data for the third time point only are shown. The levels of Aβ peptides (Aβ40 or Aβ42) in the brain and plasma were assessed by ELISA assay. All of the Aβ in the brain (including Aβ in plaques) was extracted in 70% formic acid (FA). The levels of Aβ peptides in GM1 or gelsolin treated mice were compared with those of vehicle treated controls.
(§7) This correlates with a statistically significant increase in peripheral Aβ40 and Aβ42 at the same time point. For gelsolin, there was also a significant decrease in Aβ42, which correlated with a statistically significant increase in peripheral Aβ, thus confirming that the general principle of Aβ sequestration in the periphery being linked to reduction of Aβ in the CNS holds true for very different types of compounds that have the unifying property of being able to bind Aβ in the blood.

Aβ42 [7] = target: T1, Aβ42; assay: Brain Abeta42 load (70% formic acid extract, ELISA) in PS/APP mice after peripheral GM1 or gelsolin; conditions: 1 week wash-out; for brain Abeta load, Abeta42: ip every two days for two weeks from 9 weeks of age, sacrificed at 12 weeks, FA-soluble brain fraction; for brain Abeta42 load compared with controls (vehicle): ip every two days for two weeks, % of vehicle
Method: as §3, §4, §6, §7

Aβ = assay: GM1 introduced directly into the brain of transgenic mice, Aβ levels
Sequence of Aβ (P05067 672-711 limits assumed): as above
Description: Neither GM1 nor gelsolin is known to cross into the brain from the periphery to any degree. […] This is the first time that such a result has been shown for a peripherally administered compound that is not an antibody. As such, the invention affords a significant advantage to the art by describing and promoting Aβ-binding compounds that require neither penetration of the brain nor the evocation of an immune response, which are potentially harmful and ineffective ways to modulate the risk of AD in human patients.

Aβ42 [8] = target: T1, Aβ42; assay: Plasma Abeta42 load (ELISA) in PS/APP mice after peripheral GM1 or gelsolin; conditions: ip every two days for two weeks, third time point (after wash-out), vehicle = 100 ± 7
Method: as §3, §4, §5

Compound | plasma Aβ42 level (Aβ42 [1]; 2.5 hours after injection) | plasma Aβ42 level (Aβ42 [1]; 5 hours after injection) | plasma Aβ42 level (Aβ42 [1]; 7.5 hours after injection) | plasma Aβ42 level (Aβ42 [1]; 24 hours after injection) | plasma Aβ42 level (Aβ42 [1]; 48 hours after injection) | brain Aβ40 (Aβ40 [2]) | plasma Aβ42 level (Aβ42 [3]) | brain Aβ42 (Aβ42 [4]) | plasma Abeta load, Abeta40 (Aβ40 [5]) | brain Abeta load, Abeta40 (Aβ40 [6]) | brain Abeta40 load compared with controls (vehicle) (Aβ40 [6]) | brain Abeta load, Abeta42 (Aβ42 [7]) | brain Abeta42 load compared with controls (vehicle) (Aβ42 [7]) | change in Aβ levels (Aβ) | plasma Abeta load, Abeta42 (Aβ42 [8])
O=C([O-])c1cc(N=Nc2ccc(-c3ccc(N=Nc4ccc(O)c(C(=O)[O-])c4)cc3)cc2)ccc1O.[Na+].[Na+] [CG, 5,5′-[(1,1′ biphenyl)-4,4′-diylbis(azo)]bis [2-hydroxybenzoic acid]disodium salt] | 110 ± 8 (p = 0.232) % of pre-treatment time point | 125 ± 8 (p = 0.049) % of pre-treatment time point | 125 ± 7 (p = 0.034) % of pre-treatment time point | 112 ± 13 (p = 0.341) % of pre-treatment time point | 111 ± 10 (p = 0.256) % of pre-treatment time point | 541 ± 50 fmol/mL | 331 ± 10 % of control | 540 ± 271 fmol/mL |  |  |  |  |  |  | 
GM1 |  |  |  |  |  |  |  |  | 177 ± 29 fmole/ml plasma | 2147 ± 226 fmole/mg protein | 59% | 2990 ± 410 fmole/mg protein | 73% | no change in Aβ levels was observed | 124 ± 11 fmole/ml plasma
gelsolin |  |  |  |  |  |  |  |  | 218 ± 87 fmole/ml plasma | 3473 ± 673 fmole/mg protein | 96% | 2473 ± 167 fmole/mg protein | 60% |  | 153 ± 35 fmole/ml plasma
